Series [1] deals with Amyloid-beta precursor protein (Homo sapiens, UniProt P05067). The series can be described thus: Displacement of […] from Abeta peptide plaques in Alzheimer's disease patient brain.
Series [2] concerns Liver. The series can be described thus: Biodistribution in ICR mouse liver at 5 to 10 uCi, iv after 2 mins. The conditions noted are these: in vivo. The format is ADME, organism-based.
Series [3] has as its system Liver. The series can be described thus: Biodistribution in ICR mouse liver at 5 to 10 uCi, iv after 30 mins. The format is ADME, organism-based. The note with it: in vivo, 0.5 h.
For series [4], the system named is Lung. The series can be described thus: Biodistribution in ICR mouse lung at 5 to 10 uCi, iv after 2 hrs. The class given is ADME, organism-based. The note with it: in vivo.
Series [5] concerns Kidney. The series can be described thus: Biodistribution in ICR mouse kidney at 5 to 10 uCi, iv after 2 mins. The format is ADME, organism-based. The conditions noted are these: in vivo.
The subject of series [6] is Muscle tissue. The series can be described thus: Biodistribution in ICR mouse muscle at 5 to 10 uCi, iv after 1 hr. The class given is ADME, organism-based. The conditions noted are these: in vivo.
Series [7] concerns Liver. The series can be described thus: Biodistribution in ICR mouse liver at 5 to 10 uCi, iv after 2 hrs. The format is ADME, organism-based. The note with it: in vivo.
The test system of series [8] is Liver. The series can be described thus: Biodistribution in ICR mouse liver at 5 to 10 uCi, iv after 1 hr. The conditions noted are these: in vivo. The class given is ADME, organism-based.
The test system of series [9] is Brain. The series can be described thus: Biodistribution in ICR mouse brain at 5 to 10 uCi, iv after 30 mins. The note with it: in vivo, 0.5 h. The class given is ADME, organism-based.
For series [10], the system named is Lung. The series can be described thus: Biodistribution in ICR mouse lung at 5 to 10 uCi, iv after 30 mins. The format is ADME, organism-based. The note with it: in vivo, 0.5 h.
Series [11] concerns Lung. The series can be described thus: Biodistribution in ICR mouse lung at 5 to 10 uCi, iv after 2 mins. The class given is ADME, organism-based. The note with it: in vivo.
For series [12], the system named is Thyroid gland. The series can be described thus: Biodistribution in ICR mouse thyroid at 5 to 10 uCi, iv after 2 mins. The note with it: in vivo. The format is ADME, organism-based.
The test system of series [13] is Zone of skin. The series can be described thus: Biodistribution in ICR mouse skin at 5 to 10 uCi, iv after 2 mins. The class given is ADME, organism-based. The conditions noted are these: in vivo.
The subject of series [14] is Kidney. The series can be described thus: Biodistribution in ICR mouse kidney at 5 to 10 uCi, iv after 1 hr. The format is ADME, organism-based. The note with it: in vivo.
For series [15], the system named is Spleen. The series can be described thus: Biodistribution in ICR mouse spleen at 5 to 10 uCi, iv after 2 mins. The format is ADME, organism-based. The conditions noted are these: in vivo.
Series [16] relates to Muscle tissue. The series can be described thus: Biodistribution in ICR mouse muscle at 5 to 10 uCi, iv after 2 mins. The format is ADME, organism-based. The conditions noted are these: in vivo.
The subject of series [17] is Spleen. The series can be described thus: Biodistribution in ICR mouse spleen at 5 to 10 uCi, iv after 1 hr. The format is ADME, organism-based. The conditions noted are these: in vivo.
Series [18] has as its system Kidney. The series can be described thus: Biodistribution in ICR mouse kidney at 5 to 10 uCi, iv after 2 hrs. The class given is ADME, organism-based. The conditions noted are these: in vivo.
Series [19] is described as follows: Partition coefficient, log P at pH 7.4. The conditions noted are these: octanol/water. The class given is physicochemical.
The test system of series [20] is Zone of skin. The series can be described thus: Biodistribution in ICR mouse skin at 5 to 10 uCi, iv after 1 hr. The format is ADME, organism-based. The note with it: in vivo.
Series [21] concerns Zone of skin. The series can be described thus: Biodistribution in ICR mouse skin at 5 to 10 uCi, iv after 30 mins. The format is ADME, organism-based. The conditions noted are these: in vivo, 0.5 h.
Series [22] relates to Lung. The series can be described thus: Biodistribution in ICR mouse lung at 5 to 10 uCi, iv after 1 hr. The format is ADME, organism-based. The conditions noted are these: in vivo.
Series [23] relates to Thyroid gland. The series can be described thus: Biodistribution in ICR mouse thyroid at 5 to 10 uCi, iv after 2 hrs. The format is ADME, organism-based. The note with it: in vivo.
The subject of series [24] is Brain. The series can be described thus: Biodistribution in ICR mouse brain at 5 to 10 uCi, iv after 2 mins. The format is ADME, organism-based. The note with it: in vivo.
Series [25] concerns Brain. The series can be described thus: Biodistribution in ICR mouse brain at 5 to 10 uCi, iv after 1 hr. The conditions noted are these: in vivo. The class given is ADME, organism-based.
Series [26] concerns Muscle tissue. The series can be described thus: Biodistribution in ICR mouse muscle at 5 to 10 uCi, iv after 30 mins. The class given is ADME, organism-based. The note with it: in vivo, 0.5 h.
The test system of series [27] is Spleen. The series can be described thus: Biodistribution in ICR mouse spleen at 5 to 10 uCi, iv after 30 mins. The format is ADME, organism-based. The note with it: in vivo, 0.5 h.
For series [28], the system named is Spleen. The series can be described thus: Biodistribution in ICR mouse spleen at 5 to 10 uCi, iv after 2 hrs. The class given is ADME, organism-based. The note with it: in vivo.
The subject of series [29] is Brain. The series can be described thus: Biodistribution in ICR mouse brain at 5 to 10 uCi, iv after 2 hrs. The class given is ADME, organism-based. The note with it: in vivo.
Series [30] deals with Heart. The series can be described thus: Biodistribution in ICR mouse heart at 5 to 10 uCi, iv after 2 hrs. The format is ADME, organism-based. The conditions noted are these: in vivo.
In series [31] the test system is Heart. The series can be described thus: Biodistribution in ICR mouse heart at 5 to 10 uCi, iv after 30 mins. The format is ADME, organism-based. The conditions noted are these: in vivo, 0.5 h.
The test system of series [32] is Muscle tissue. The series can be described thus: Biodistribution in ICR mouse muscle at 5 to 10 uCi, iv after 2 hrs. The format is ADME, organism-based. The note with it: in vivo.
The subject of series [33] is Blood. The series can be described thus: Biodistribution in ICR mouse blood at 5 to 10 uCi, iv after 1 hr. The conditions noted are these: in vivo. The format is ADME, organism-based.
Series [34] relates to Kidney. The series can be described thus: Biodistribution in ICR mouse kidney at 5 to 10 uCi, iv after 30 mins. The note with it: in vivo, 0.5 h. The class given is ADME, organism-based.
The test system of series [35] is Heart. The series can be described thus: Biodistribution in ICR mouse heart at 5 to 10 uCi, iv after 1 hr. The class given is ADME, organism-based. The conditions noted are these: in vivo.
In series [36] the test system is Blood. The series can be described thus: Biodistribution in ICR mouse blood at 5 to 10 uCi, iv after 2 hrs. The format is ADME, organism-based. The conditions noted are these: in vivo.
Series [37] relates to Brain. The series can be described thus: Ratio of drug distribution in brain after 2 mins to 30 mins in ICR mouse at 5 to 10 uCi, iv. The class given is ADME, organism-based. The note with it: in vivo.
Series [38] deals with Thyroid gland. The series can be described thus: Biodistribution in ICR mouse thyroid at 5 to 10 uCi, iv after 1 hr. The format is ADME, organism-based. The conditions noted are these: in vivo.
The test system of series [39] is Heart. The series can be described thus: Biodistribution in ICR mouse heart at 5 to 10 uCi, iv after 2 mins. The note with it: in vivo. The class given is ADME, organism-based.
Series [40] has as its system Blood. The series can be described thus: Biodistribution in ICR mouse blood at 5 to 10 uCi, iv after 30 mins. The note with it: in vivo, 0.5 h. The format is ADME, organism-based.
The test system of series [41] is Thyroid gland. The series can be described thus: Biodistribution in ICR mouse thyroid at 5 to 10 uCi, iv after 30 mins. The format is ADME, organism-based. The note with it: in vivo, 0.5 h.
Series [42] has as its system Blood. The series can be described thus: Biodistribution in ICR mouse blood at 5 to 10 uCi, iv after 2 mins. The class given is ADME, organism-based. The note with it: in vivo.
Series [43] deals with Zone of skin. The series can be described thus: Biodistribution in ICR mouse skin at 5 to 10 uCi, iv after 2 hrs. The format is ADME, organism-based. The note with it: in vivo.

These results are taken from ChEMBL document CHEMBL1147144, “Novel styrylpyridines as probes for SPECT imaging of amyloid plaques” (J Med Chem, 2007).

Broadly, the Ki is a measure of affinity in units of concentration, obtained from inhibition or displacement. As a reminder, the logD is the decadic logarithm of the distribution of all forms, ionised or not, between an organic phase and buffer at a given pH.

Chain of Amyloid-beta precursor protein (P05067 whole entry): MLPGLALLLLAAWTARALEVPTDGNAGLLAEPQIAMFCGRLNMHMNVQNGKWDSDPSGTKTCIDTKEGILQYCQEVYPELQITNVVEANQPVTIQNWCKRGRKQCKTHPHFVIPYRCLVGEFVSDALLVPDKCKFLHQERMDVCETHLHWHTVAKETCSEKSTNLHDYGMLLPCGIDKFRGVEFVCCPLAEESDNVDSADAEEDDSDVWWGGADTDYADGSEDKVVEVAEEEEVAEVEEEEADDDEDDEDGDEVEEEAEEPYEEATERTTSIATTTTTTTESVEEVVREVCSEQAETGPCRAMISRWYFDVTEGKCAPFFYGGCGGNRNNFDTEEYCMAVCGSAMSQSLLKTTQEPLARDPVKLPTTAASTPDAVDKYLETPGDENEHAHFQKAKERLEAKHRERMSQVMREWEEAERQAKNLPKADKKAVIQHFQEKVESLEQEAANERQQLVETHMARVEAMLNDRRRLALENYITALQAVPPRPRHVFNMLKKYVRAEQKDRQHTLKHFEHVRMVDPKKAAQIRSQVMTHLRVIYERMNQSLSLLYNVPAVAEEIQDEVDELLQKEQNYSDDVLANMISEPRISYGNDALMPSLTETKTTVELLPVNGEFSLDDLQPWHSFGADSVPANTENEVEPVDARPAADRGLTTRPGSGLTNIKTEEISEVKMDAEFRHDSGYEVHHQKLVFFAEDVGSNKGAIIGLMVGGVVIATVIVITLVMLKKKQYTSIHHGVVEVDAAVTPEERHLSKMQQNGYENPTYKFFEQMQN

On to `CN(C)c1ccc(/C=C/c2cnc(OCCOCCOCCF)c(I)c2)cc1`, for which affinity in [1] was put at a Ki of 7.5 nM.

Compound `CNc1ccc(/C=C/c2cnc(OCCO)c(I)c2)cc1` had a Ki in [1] of 8.5 nM.

In turn, `OCCOc1ncc(/C=C/c2ccc(O)cc2)cc1I` came in with a Ki in series [1] of 15.5 nM.

In series [1], `OCCOc1ncc(C=Cc2ccc(O)cc2)cc1Br` registered a Ki of 6.8 nM.

Regarding `CNc1ccc(/C=C/c2cnc(OCCOCCOCCF)c([125I])c2)cc1`, the Drug uptake is reported as 26.2 % ID/g in the series on Liver [2]; 11.5 % ID/g in the series with Liver [3]; 1.85 % ID/g in the series on Lung [4]; 9.03 % ID/g in the series on Kidney [5]; 0.85 % ID/g in the series with Muscle tissue [6]; 6.25 % ID/g in the series with Liver [7]. In addition, the Drug uptake with Liver [8] stood at 7.7 % ID/g; with Brain [9] it was 1.23 % ID/g; with Lung [10] it was 3.01 % ID/g; in the series with Lung [11] it was 6.85 % ID/g; in the series with Thyroid gland [12], 5.74 % ID/g; in the series on Zone of skin [13] it was 1.48 % ID/g. The Drug uptake in the series with Kidney [14] is 2.81 % ID/g; with Spleen [15], 4.41 % ID/g; with Muscle tissue [16], 1.04 % ID/g; in the series on Spleen [17], 1.75 % ID/g; in the series with Kidney [18], 1.86 % ID/g; in the series with Zone of skin [20], 2.46 % ID/g. Moreover, the Drug uptake worked out at 2.95 % ID/g in the series on Zone of skin [21]; 2.37 % ID/g in the series with Lung [22]; 215 % ID/g in the series on Thyroid gland [23]; 6.22 % ID/g in the series on Brain [24]; 0.62 % ID/g with Brain [25]; 1.11 % ID/g with Muscle tissue [26]. Moreover, the Drug uptake in the series on Spleen [27] is on record as 2.49 % ID/g; in the series with Spleen [28], 1.27 % ID/g; with Brain [29] it was 0.26 % ID/g; in the series with Heart [30], 1.22 % ID/g; with Heart [31] it was 2.54 % ID/g; in the series on Muscle tissue [32] it was 0.44 % ID/g. In addition, the Drug uptake with Blood [33] was determined as 2.88 % ID/g; in the series on Kidney [34], 3.4 % ID/g; in the series on Heart [35], 1.75 % ID/g; with Blood [36], 2.21 % ID/g; in the series with Thyroid gland [38], 38.1 % ID/g; in the series on Heart [39], 9.85 % ID/g. Also, the Drug uptake stood at 3.83 % ID/g in the series on Blood [40], 24.1 % ID/g in the series on Thyroid gland [41], 4.37 % ID/g in the series with Blood [42] and 1.32 % ID/g in the series with Zone of skin [43]. Also, the pH-dependent lipophilicity (logD) in series [19] is 2.2. In the series on Brain [37], the Ratio was found to be 5.05.

In turn, `CN(C)c1ccc(/C=C/c2cnc(OCCO)c(I)c2)cc1` registered a Ki in series [1] of 7.5 nM.

Compound `CNc1ccc(/C=C/c2cnc(OCCOCCOCCF)c(Br)c2)cc1` yielded a Ki in [1] of 4.5 nM.
